Experimental data reported in ChEMBL document CHEMBL6182860, “Discovery and rational optimization of 2, 2'-((1H-indole-2,3-diyl) bis (thio))diacetamide as novel SARS-CoV-2 RdRp inhibitors” (Bioorg Med Chem, 2025).

Legend:
[1] = target: T1, Replicase polyprotein 1ab (Severe acute respiratory syndrome coronavirus 2, UniProt P0DTD1); experiment: Inhibition of SARS-Cov-2 RdRp expressed in HEK293T cells co-transfected with pCoV-Gluc and pCOVID-nsp12/7/8 incubated for 24 hrs by microplate luminometric analysis; type: cell-based
[2] = target: Replicase polyprotein 1ab (Severe acute respiratory syndrome coronavirus 2) (UniProt P0DTD1); experiment: Inhibition of SARS-Cov-2 RdRp expressed in HEK293T cells co-transfected with pCoV-Gluc and pCOVID-nsp12/7/8 at 10 uM incubated for 24 hrs by microplate luminometric analysis relative to control; type: cell-based
[3] = Cytotoxicity against HEK293T cells assessed as reduction in cell viability incubated for 24 hrs by CCK-8 assay; type: toxicity, cell-based, HEK-293T; settings: human
Human coronavirus NL63 [4] = experiment: Antiviral activity against HCoV NL63 infected in rhesus monkey LLC-MK2 cells assessed as inhibition of viral replication pre-infected for 1 hrs followed by compound administration and measured 120 hrs post-infection by MTS assay; type: functional, organism-based; settings: for Activity: time 119.0 hrs
Human coronavirus OC43 [5] = experiment: Antiviral activity against HCoV OC43 infected in human HCT-8 cells assessed as inhibition of viral replication by measuring maximal inhibition at 50 uM pre-infected for 1 hrs followed by compound administration and measured 120 hrs post-infection by MTS assay relative to control; type: functional; settings: time 119 hrs
[6] = target: T1, Replicase polyprotein 1ab; experiment: Inhibition of SARS-Cov-2 RdRp expressed in HEK293T cells co-transfected with pCoV-Gluc and pCOVID-nsp12/7/8/10/14 assessed as tolerance to proof reading activity of nsp14/10 exonuclease incubated for 24 hrs by microplate luminometric analysis; type: cell-based
Human coronavirus NL63 [7] = experiment: Antiviral activity against HCoV NL63 infected in rhesus monkey LLC-MK2 cells assessed as inhibition of viral replication by measuring maximal inhibition at 50 uM pre-infected for 1 hrs followed by compound administration and measured 120 hrs post-infection by MTS assay relative to control; type: functional; settings: time 119 hrs
[8] = target: Replicase polyprotein 1ab (Severe acute respiratory syndrome coronavirus 2) (UniProt P0DTD1); experiment: Inhibition of SARS-Cov-2 RdRp expressed in HEK293T cells co-transfected with pCoV-Gluc and pCOVID-nsp12/7/8 at 0.5 to 2 uM incubated for 24 hrs by microplate luminometric analysis; type: cell-based; settings: dose 0.5-2 µM
[9] = target: Replicase polyprotein 1ab (Severe acute respiratory syndrome coronavirus 2) (UniProt P0DTD1); experiment: Inhibition of SARS-Cov-2 RdRp expressed in HEK293T cells co-transfected with pCoV-Gluc and pCOVID-nsp12/7/8 assessed as reduction in viral positive strand Gluc-RNA level incubated for 24 hrs by qRT-PCR analysis; type: cell-based
[10] = target: Replicase polyprotein 1ab (Severe acute respiratory syndrome coronavirus 2) (UniProt P0DTD1); experiment: Inhibition of SARS-Cov-2 RdRp expressed in HEK293T cells co-transfected with pCoV-Gluc and pCOVID-nsp12/7/8 assessed as reduction in viral negative strand Gluc-RNA level incubated for 24 hrs by qRT-PCR analysis; type: cell-based
Human coronavirus OC43 [11] = experiment: Antiviral activity against HCoV OC43 infected in human HCT-8 cells assessed as inhibition of viral replication pre-infected for 1 hrs followed by compound administration and measured 120 hrs post-infection by MTS assay; type: functional, organism-based; settings: for EC50: Betacoronavirus 1, HCT-8; for Activity: time 119.0 hrs
[12] = target: Replicase polyprotein 1ab (Severe acute respiratory syndrome coronavirus 2) (UniProt P0DTD1); experiment: Inhibition of SARS-Cov-2 RdRp expressed in HEK293T cells co-transfected with pCoV-Gluc and pCOVID-nsp12/7/8 at 3 uM incubated for 24 hrs by microplate luminometric analysis; type: cell-based

Structure (SMILES) | EC50 [1] | inhibition [2] | CC50 at 24 h [3] | other results
CCOc1ccccc1NC(=O)CSc1c(SCC(=O)NCc2ccccc2OC)[nH]c2ccccc12 | 2360 nM | 73.8% | > 100000 nM | –
CCOc1ccccc1NC(=O)CSc1c(SCC(=O)NCc2ccc(C)cc2)[nH]c2ccccc12 | 2760 nM | 88.3% | > 100000 nM | –
O=C(CSc1[nH]c2ccccc2c1SCC(=O)Nc1ccc(Cl)c(Cl)c1)NCc1ccc(-c2ccccc2)cc1 | 1910 nM | 93.8% | 75100 nM | –
CCOc1ccccc1NC(=O)CSc1c(SCC(=O)NCc2cccc(Cl)c2)[nH]c2ccccc12 | 570 nM | 94.8% | > 100000 nM | EC50 (Human coronavirus NL63 [4]): 4110 nM; Activity (Human coronavirus NL63 [4]): Dose-dependent-effect; Imax (Human coronavirus OC43 [5]): 90%; EC50 [6]: 850 nM; Imax (Human coronavirus NL63 [7]): 80%; inhibition [8]: Active; Better Inhibitory Effect Than Remdesivir Observed; inhibition ([9]; dose 5-10 µM, time 24.0 hrs): Dose-dependent-effect; inhibition ([10]; dose 5-10 µM, time 24.0 hrs): Dose-dependent-effect; EC50 (Human coronavirus OC43 [11]): 1280 nM; Activity (Human coronavirus OC43 [11]): Dose-dependent-effect
CCOc1ccccc1NC(=O)CSc1c(SCC(=O)NCc2ccccc2Cl)[nH]c2ccccc12 | 2550 nM | 80.8% | > 100000 nM | –
CCOc1ccccc1NC(=O)CSc1c(SCC(=O)NCc2ccccc2F)[nH]c2ccccc12 | 710 nM | 89.5% | > 100000 nM | EC50 (Human coronavirus NL63 [4]): 13400 nM; Activity (Human coronavirus NL63 [4]): Dose-dependent-effect; Imax (Human coronavirus OC43 [5]): 90%; EC50 [6]: 1070 nM; Imax (Human coronavirus NL63 [7]): 80%; inhibition [8]: Active; Better Inhibitory Effect Than Remdesivir Observed; inhibition ([9]; dose 5-10 µM, time 24.0 hrs): Dose-dependent-effect; inhibition ([10]; dose 5-10 µM, time 24.0 hrs): Dose-dependent-effect; EC50 (Human coronavirus OC43 [11]): 1520 nM; Activity (Human coronavirus OC43 [11]): Dose-dependent-effect
CCOc1ccccc1NC(=O)CSc1c(SCC(=O)NCc2ccccc2)[nH]c2ccccc12 | 2140 nM | 89.2% | > 100000 nM | –
Cc1ccc(CNC(=O)CSc2[nH]c3ccccc3c2SCC(=O)Nc2ccc(Cl)c(Cl)c2)cc1 | 1600 nM | 91.9% | > 100000 nM | –
O=C(CSc1[nH]c2ccccc2c1SCC(=O)Nc1ccc(Cl)c(Cl)c1)NCc1ccccc1Cl | 2330 nM | 82% | > 100000 nM | –
COc1ccccc1CNC(=O)CSc1[nH]c2ccccc2c1SCC(=O)Nc1ccc(Cl)c(Cl)c1 | 2000 nM | 95.5% | > 100000 nM | –
CCOc1ccccc1NC(=O)CSc1[nH]c2ccccc2c1SCC(=O)Nc1ccccc1OCC | – | 48.5% | – | –
CCOc1ccccc1NC(=O)CSc1c(SCC(=O)NCc2ccccc2C)[nH]c2ccccc12 | 2580 nM | 77.5% | > 100000 nM | –
O=C(CSc1c[nH]c2ccccc12)Nc1ccc(Cl)c(Cl)c1 | – | 36% | – | –
CCOc1ccccc1CNC(=O)CSc1[nH]c2ccccc2c1SCC(=O)Nc1ccccc1OCC | – | 39.2% | – | –
Cc1cccc(CNC(=O)CSc2[nH]c3ccccc3c2SCC(=O)Nc2ccc(Cl)c(Cl)c2)c1 | 1550 nM | 96% | 90300 nM | EC50 [6]: 1750 nM; inhibition [9]: Dose-dependent-effect; Inhibition Effect Were Twice As Potent As Remdesivir At 10 Um; inhibition [12]: Active; Maximum Inhibitory Effect Observed; inhibition [10]: Dose-dependent-effect; Inhibition Effect Were Twice As Potent As Remdesivir At 10 Um
O=C(CSc1[nH]c2ccccc2c1SCC(=O)Nc1ccc(Cl)c(Cl)c1)NCc1ccccc1 | 3130 nM | 97% | 87100 nM | –
CCOc1ccccc1NC(=O)CSc1c(SCC(=O)NCc2ccc(Cl)cc2)[nH]c2ccccc12 | 1770 nM | 95.4% | > 100000 nM | –
CCOc1ccccc1NC(=O)CSc1c[nH]c2ccccc12 | – | 4% | – | –
CCC(CC)COC(=O)[C@H](C)N[P@](=O)(OC[C@H]1O[C@@](C#N)(c2ccc3c(N)ncnn23)[C@H](O)[C@@H]1O)Oc1ccccc1 | – | 87% | > 100000 nM | EC50 (Human coronavirus NL63 [4]): 3420 nM; inhibition ([9]; dose 5-10 µM, time 24.0 hrs): Dose-dependent-effect; inhibition ([10]; dose 5-10 µM, time 24.0 hrs): Dose-dependent-effect; EC50 (Human coronavirus OC43 [11]): 1790 nM
Cc1ccccc1CNC(=O)CSc1[nH]c2ccccc2c1SCC(=O)Nc1ccc(Cl)c(Cl)c1 | 2440 nM | 94.4% | > 100000 nM | –
O=C(CSc1[nH]c2ccccc2c1SCC(=O)Nc1ccc(Cl)c(Cl)c1)NCc1cccc(Cl)c1 | 2140 nM | 85.1% | > 100000 nM | –
CCOc1ccccc1NC(=O)CSc1c(SCC(=O)NCc2cccc(C)c2)[nH]c2ccccc12 | – | 40.2% | – | –
CCOc1ccccc1NC(=O)CSc1c(SCC(=O)NCc2ccc(Cl)c(Cl)c2)[nH]c2ccccc12 | 2590 nM | 84.8% | > 100000 nM | –
O=C(CSc1[nH]c2ccccc2c1SCC(=O)Nc1ccc(Cl)c(Cl)c1)NCc1ccc(Cl)cc1 | 1880 nM | 96.6% | > 100000 nM | –
O=C(CSc1[nH]c2ccccc2c1SCC(=O)Nc1ccc(Cl)c(Cl)c1)NCc1ccc(Cl)c(Cl)c1 | 2020 nM | 89.1% | > 100000 nM | –
CCOc1ccccc1NC(=O)CSc1c(SCC(=O)NCc2ccc(-c3ccccc3)cc2)[nH]c2ccccc12 | – | 39.7% | – | –
CCOc1ccccc1CNC(=O)CSc1[nH]c2ccccc2c1SCC(=O)Nc1ccc(Cl)c(Cl)c1 | 1450 nM | 92% | 72500 nM | EC50 [6]: 1690 nM; inhibition ([9]; dose 5-10 µM, time 24.0 hrs): Dose-dependent-effect; inhibition [12]: Active; Maximum Inhibitory Effect Observed; inhibition ([10]; dose 5-10 µM, time 24.0 hrs): Dose-dependent-effect
O=C(CSc1[nH]c2ccccc2c1SCC(=O)Nc1ccc(Cl)c(Cl)c1)Nc1ccc(Cl)c(Cl)c1 | 2430 nM | 88.1% | 95500 nM | –
O=C(CSc1[nH]c2ccccc2c1SCC(=O)Nc1ccc(Cl)c(Cl)c1)NCc1ccccc1F | 1440 nM | 93.6% | 78600 nM | EC50 [6]: 1800 nM; inhibition [9]: Dose-dependent-effect; Inhibition Effect Were Twice As Potent As Remdesivir At 10 Um; inhibition [12]: Active; Maximum Inhibitory Effect Observed; inhibition [10]: Dose-dependent-effect; Inhibition Effect Were Twice As Potent As Remdesivir At 10 Um
